Patent US20230014430A1, “Methods and Compositions for Generating Functionally Mature Beta Cells and Uses Thereof” (Washington University, priority 2019, published 2023)

B1: TGFβ2: TGFβ agonist (growth factor) (protein, UniProt P61812 303-414, looked up)
Transforming growth factor …: ALDAAYCFRNVQDNCCLRPLYIDFKRDLGWKWIHEPKGYNANFCAGACPYLWSSDTQHSRVLSLYNTINPEASASPCCVSQDLEPLTILYYIGKTPKIEQLSNMIVKSCKCS

Columns and labels:
Format in all cases: cell-based, human
SIX2 gene expression = experiment: SC-β cells treated with a library of compounds to identify SIX2 regulators; conditions: FIG. 11
Protocol: FIG. 11. Regulators of SIX2. SC-β cells were treated with a library of compound to identify SIX2 regulators. […] (B) Negative Regulators of SIX2 gene expression. (C) Flow cytometry of SC-β cells treated with SIX2 regulators.
Here, regulators of SIX2 gene expression were discovered (see e.g., FIG. 11). It was discovered that (1) regulators of SIX2 affect the % of SC-β cells generated (see e.g., FIG. 12); (2) SIX2 regulators influence SC-β cell function (see e.g., FIG. 13); (3) SIX2 is expressed by only a fraction of C-peptide positive cells (SC-β cells) (see e.g., FIG. 12A, FIG. 2B); and (4) SIX2+ cells secrete insulin in response to glucose when single cell dispersed and plated down (see e.g., FIG. 14).

SC-β cells [1] = experiment: Static glucose-stimulated insulin secretion of stage 6 cells; conditions: HUES8 hESC and 1013-4FA hiPSC lines, vs sh-ctrl
Protocol: (§1) Gene KD was performed similar to as previously described (Velazco-Cruz et al., 2019). pLKO.1 TRC plasmids containing shRNA sequences targeting GFP (sh-ctrl) and human SIX2 (sh-SIX2-1 and sh-SIX2-2) were received from the RNAi Core at the Washington University. sh-ctrl, […] (SEQ ID NO: 35); sh-SIX2-1, […] (SEQ ID NO: 36); sh-SIX2-2, […] (SEQ ID NO: 37). Viral particles were generated using Lenti-X 293T cells (Takara; 632180) cultured in DMEM (MilliporeSigma; D6429) with 10% heat inactivated fetal bovine serum (MilliporeSigma; F4135). Confluent Lenti-X 293T cells were transfected with […] of shRNA plasmid, […] of psPAX2 (Addgene; 12260), and 1.5 μg pMD2.G (Addgene; 12259) packaging plasmids in 600 μL of Opti-MEM (Life Technologies; 31985-070) and 48 μL of Polyethylenimine ‘Max’ MW 40,000 Da (Polysciences; 24765-2). 16 hours post transfection media was switched. Viral containing supernatant was collected at 96 hours post transfection and concentrated using Lenti-X concentrator (Takara; 631232). Collected lentivirus was tittered using Lenti-X qRT-PCR Titration Kit (Takara; 631235). […]
Measurements were performed as previously described (Velazco-Cruz et al., 2019). […] Insulin was quantified with a human insulin ELISA (ALPCO; 80-INSHU-E10.1). Cell quantification was performed by dispersing with trypLE and counting with the Vi-Cell XR.

SC-β cells [2] = experiment: Dynamic glucose-stimulated insulin secretion of stage 6 cells (perifusion); conditions: HUES8 hESC and 1013-4FA hiPSC lines, vs sh-ctrl
Protocol: as §1
Measurements were performed as previously described (Velazco-Cruz et al., 2019). […] Insulin was quantified with a human insulin ELISA (ALPCO; 80-INSHU-E10.1). DNA quantification was performed by lysing the cells and measuring with the Quant-iT Picogreen dsDNA assay kit (Invitrogen; P7589). […]

Row | Molecule | regulation of SIX2 expression in SC-β cells (SIX2 gene expression) | static glucose-stimulated insulin secretion (SC-β cells [1]) | dynamic glucose-stimulated insulin secretion (SC-β cells [2])
1 | Nc1nccc2c1ncn2[C@@H]1C=C(CO)[C@@H](O)[C@H]1O [3-Deazaneplanocin A] | positive regulator |  | 
2 | Nc1ncn([C@@H]2O[C@H](CO)[C@@H](O)[C@H]2O)c(=O)n1 [5-Azacytidine] | positive regulator |  | 
3 | Cc1c[nH]c(-c2cnc(NCCNc3ccc(C#N)cn3)nc2-c2ccc(Cl)cc2Cl)n1 [CHIR99021] | positive regulator |  | 
4 | Cc1ccc(-n2nc(C(C)(C)C)cc2NC(=O)Nc2ccc(OCCN3CCOCC3)c3ccccc23)cc1 [doramapimod] | positive regulators |  | 
5 | AZD4547 | positive regulators |  | 
6 | TGFβ1: TGFβ agonist (growth factor) | positive regulators |  | 
7 | sh-SIX2-1: lentiviral pLKO.1 TRC shRNA targeting human SIX2, CAACGAGAACTCCAATTCTAA (SEQ ID NO: 36) |  | significant reductions | significant reductions
8 | sh-SIX2-2: lentiviral pLKO.1 TRC shRNA targeting human SIX2, GAGCACCTTCACAAGAATGAA (SEQ ID NO: 37) |  | significant reductions | significant reductions
9 | B1 | positive regulators |  | 
